Experimental data taken from patent publication US20260274891A1, “¿ OPIOID RECEPTOR AGONIST AND USE THEREOF” (CHENGDU AODA BIOTECHNOLOGY CO., LTD., priority 2023, published 2026).
Like-named read-outs stand apart in the source and are kept apart here. Bridge positions count the residues as written; N and C are the ends. Square brackets hold non-standard residues; d marks the D form. Side chains are listed from the residue outwards. Peptide text beside a SMILES is read from it. I, II: the chains in the order shown. * marks the point of attachment. X28 = NCCCC[C@H](NC(=O)[C@H](CCCCN)NC(=O)C1(N)CCN(*)CC1)C(=O)O; X12 = CCOc1ccc(C[C@@H](NC(=O)[C@H](N)Cc2ccccc2)C(=O)*)cc1; Piperidin1yl(4-NH2,4-COOH) = NC1(C(=O)O)CCN(*)CC1; Piperidinyl(4-NH2,4-CONH2) = NC(=O)C1(N)CCN(*)CC1; X10 = NCCCC[C@@H](NC(=O)C1(N)CCN(*)CC1)C(=O)O; Trifluoroethyl = FC(F)(F)C*; Api = NC1(C(=O)O)CCNCC1; iPr = CC(C)*

Molecular target: T1, human κ opioid receptor (OPRK1) (Homo sapiens, UniProt P41145)
T1 construct: expressed in transfected cells; host or cells: CHO-K1
T1 sequence (P41145 whole entry): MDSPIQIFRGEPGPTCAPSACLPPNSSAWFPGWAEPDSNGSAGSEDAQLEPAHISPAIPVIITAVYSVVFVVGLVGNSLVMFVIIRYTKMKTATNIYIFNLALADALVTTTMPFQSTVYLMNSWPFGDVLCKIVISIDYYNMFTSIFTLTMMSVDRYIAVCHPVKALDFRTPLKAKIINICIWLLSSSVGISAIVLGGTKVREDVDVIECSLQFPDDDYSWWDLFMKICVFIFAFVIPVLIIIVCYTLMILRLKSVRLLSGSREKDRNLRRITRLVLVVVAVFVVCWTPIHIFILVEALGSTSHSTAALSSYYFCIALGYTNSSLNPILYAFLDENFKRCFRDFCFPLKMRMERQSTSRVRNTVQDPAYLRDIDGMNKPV
Test: Determination of activities of κ receptor agonists: inhibition of forskolin-stimulated cAMP release (HTRF) in stably transfected CHO-K1 cells
Format: cell-based
Settings: for Relative Activity %: relative to Difelikefalin = 100.0
Excerpt: Gi-coupled human κ opioid receptor (OPRK1), upon stimulation with its specific opioid receptor agonists, can inhibit the intracellular adenylate cyclase pathway, and decrease cAMP levels. Forskolin can stimulate cAMP release in cell lines highly expressing opioid receptors. By stimulating cell lines stably transfected with opioid receptors, the inhibitory effect of a test compound on forskolin-stimulated cAMP release can be measured to determine the activity of the compound. The relative light units (RLU) from the cells after stimulation with different doses were measured via the homogeneous time-resolved fluorescence technique (HTRF), and the EC50 value of the agonist was subsequently calculated. This activity determination method is a currently commonly used method for determining the activities of opioid receptor agonists at home and abroad.
A CHO-K1 cell line stably expressing opioid receptors was used. Stably transfected cells were stimulated with various concentrations of agonists (under the stimulation of a certain concentration of forskolin). The relative light units from the cells after stimulation with different doses were measured, from which the EC50 value of the agonist was subsequently obtained by calculation.

Row | SMILES | EC50 [nM] | Relative Activity % [%] | EC50 (CHO-K1 cell line stably expressing opioid receptors, forskolin-stimulated cAMP, HTRF, read-out: EC50) [nM]
1 | CC(C)C[C@@H](NC(=O)[C@@H](Cc1ccc(OCC(F)(F)F)cc1)NC(=O)[C@H](N)Cc1ccccc1)C(=O)N[C@H](CCCCN)C(=O)N1CCC(N)(C(=O)O)CC1 [Compound 92, D-Phe-D-Tyr(CH2CF3)-D-Leu-D-Lys-4-aminopiperidine-4-carboxamide-OH] (H-[dF][dY](Trifluoroethyl)[dL][dK]-{Piperidin1yl(4-NH2,4-COOH)}; N-terminus assumed) | 0.109 | 558.6 | –
2 | CCOc1ccc(C[C@@H](NC(=O)[C@H](N)Cc2ccccc2)C(=O)N[C@H](CC(C)C)C(=O)N[C@H](CCCCN)C(=O)N2CCC(N)(C(=O)N[C@@H](CCCCN)C(=O)N[C@@H](CCCCN)C(=O)O)CC2)cc1 [Compound 6, D-Phe-D-Tyr(Et)-D-Leu-D-Lys-4-aminopiperidine-4-carboxamide-Lys-Lys-OH] (H-[dF][dY](Et)[dL][dK]-X28; N-terminus assumed) | 0.0402 | 1510.4 | –
3 | CC(C)C[C@@H](NC(=O)[C@@H](Cc1ccc(OC(C)C)cc1)NC(=O)[C@H](N)Cc1ccccc1)C(=O)N[C@H](CCCCN)C(=O)N1CCC(N)(C(=O)N[C@H](CCCCN)C(=O)O)CC1 [Compound 102, D-Phe-D-Tyr(Ipr)-D-Leu-D-Lys-4-aminopiperidine-4-carboxamide-D-Lys-OH] (H-[dF][dY](iPr)[dL][dK]-X10; N-terminus assumed) | 0.073 | 831.8 | –
4 | CC(C)C[C@@H](NC(=O)[C@@H](Cc1ccc(I)cc1)NC(=O)[C@H](N)Cc1ccccc1)C(=O)N[C@H](CCCCN)C(=O)N1CCC(N)(C(=O)N[C@@H](CCCCN)C(=O)O)CC1 [Compound 124, D-Phe-D-Phe(4-I)-D-Leu-D-Lys-4-aminopiperidine-4-carboxamide-Lys-OH] | 0.0558 | 1088.2 | –
5 | CCc1ccc(C[C@@H](NC(=O)[C@H](N)Cc2ccccc2)C(=O)N[C@H](CC(C)C)C(=O)N[C@H](CCCCN)C(=O)N2CCC(N)(C(=O)N[C@@H](CCCCN)C(N)=O)CC2)cc1 [Compound 131, D-Phe-D-Phe(4-Et)-D-Leu-D-Lys-4-aminopiperidine-4-carboxamide-Lys-NH2] | 0.134 | 454.5 | –
6 | CC(C)C[C@@H](NC(=O)[C@@H](Cc1ccc(OC(C)C)cc1)NC(=O)[C@H](N)Cc1ccccc1)C(=O)N[C@H](CCCCN)C(=O)N1CCC(N)(C(=O)O)CC1 [Compound 98, D-Phe-D-Tyr(Ipr)-D-Leu-D-Lys-4-aminopiperidine-4-carboxamide-OH] (H-[dF][dY](iPr)[dL][dK]-{Piperidin1yl(4-NH2,4-COOH)}; N-terminus assumed) | 0.145 | 418.2 | –
7 | CCOc1ccc(C[C@@H](NC(=O)[C@H](N)Cc2ccccc2)C(=O)N[C@H](CC(C)C)C(=O)N[C@H](CCCCN)C(=O)N2CCC(N)(C(=O)N[C@H](CCCCN)C(=O)O)CC2)cc1 [Compound 16, D-Phe-D-Tyr(Et)-D-Leu-D-Lys-4-aminopiperidine-4-carboxamide-D-Lys-OH] (H-[dF][dY](Et)[dL][dK]-X10; N-terminus assumed) | 0.0431 | 1408.8 | –
8 | Cc1ccc(C[C@@H](NC(=O)[C@H](N)Cc2ccccc2)C(=O)N[C@H](CC(C)C)C(=O)N[C@H](CCCCN)C(=O)N2CCC(N)(C(=O)N[C@@H](CCCCN)C(=O)O)CC2)cc1 [Compound 128, D-Phe-D-Phe(4-Me)-D-Leu-D-Lys-4-aminopiperidine-4-carboxamide-Lys-OH] | 0.16 | 380.2 | –
9 | CC(C)C[C@@H](NC(=O)[C@@H](Cc1ccccc1)NC(=O)[C@H](N)Cc1ccccc1)C(=O)N[C@H](CCCCN)C(=O)N1CCC(N)(C(=O)O)CC1 [Difelikefalin, D-Phe-D-Phe-D-Leu-D-Lys-4-caminopiperidine-4-arboxylicacid-OH, reference compound] | – | – | 0.607
10 | CC(C)C[C@@H](NC(=O)[C@@H](Cc1ccc(OCC(F)(F)F)cc1)NC(=O)[C@H](N)Cc1ccccc1)C(=O)N[C@H](CCCCN)C(=O)N1CCC(N)(C(N)=O)CC1 [Compound 91, D-Phe-D-Tyr(CH2CF3)-D-Leu-D-Lys-4-aminopiperidine-4-carboxamide-NH2] (H-[dF][dY](Trifluoroethyl)[dL][dK]-{Piperidinyl(4-NH2,4-CONH2)}; N-terminus assumed) | 0.11 | 550.0 | –
11 | CCOc1ccc(C[C@@H](NC(=O)[C@H](N)Cc2ccccc2)C(=O)N[C@H](CC(C)C)C(=O)N[C@H](CCCCN)C(=O)N2CCC(N)(C(=O)N[C@H](CCCCN)C(=O)N[C@H](CCCCN)C(=O)N[C@H](CCCCN)C(=O)N[C@H](CCCCN)C(N)=O)CC2)cc1 [Compound 21, D-Phe-D-Tyr(Et)-D-Leu-D-Lys-4-aminopiperidine-4-carboxamide-D-Lys-D-Lys-D-Lys-D-Lys -NH2] (H-[Api]([dK-dL-X12])[dK][dK][dK][dK]-NH2; N-terminus assumed) | 0.0501 | 1212.0 | –
12 | CCOc1ccc(C[C@@H](NC(=O)[C@H](N)Cc2ccccc2)C(=O)N[C@H](CC(C)C)C(=O)N[C@H](CCCCN)C(=O)N2CCC(N)(C(=O)N[C@@H](CCCCN)C(=O)N[C@@H](CCCCN)C(=O)N[C@@H](CCCCN)C(=O)N[C@@H](CCCCN)C(=O)O)CC2)cc1 [Compound 10, D-Phe-D-Tyr(Et)-D-Leu-D-Lys-4-aminopiperidine-4-carboxamide-Lys-Lys-Lys-Lys-OH] (H-[Api]([dK-dL-X12])KKKK-OH; N-terminus assumed) | 0.0463 | 1311.4 | –
13 | CCOc1ccc(C[C@@H](NC(=O)[C@H](N)Cc2ccccc2)C(=O)N[C@H](CC(C)C)C(=O)N[C@H](CCCCN)C(=O)N2CCC(N)(C(=O)N[C@H](CCCCN)C(=O)N[C@H](CCCCN)C(=O)N[C@H](CCCCN)C(N)=O)CC2)cc1 [Compound 19, D-Phe-D-Tyr(Et)-D-Leu-D-Lys-4-aminopiperidine-4-carboxamide-D-Lys-D-Lys-D-Lys-NH2] (I: H-[Api][dK][dK][dK]-NH2 / II: H-[dF][dY](Et)[dL][dK]; amide I:1-II:C; N-terminus assumed) | 0.0479 | 1267.6 | –
14 | CCOc1ccc(C[C@@H](NC(=O)[C@H](N)Cc2ccccc2)C(=O)N[C@H](CC(C)C)C(=O)N[C@H](CCCCN)C(=O)N2CCC(N)(C(=O)NCC(=O)NCC(=O)NCC(=O)NCC(=O)NCC(=O)N[C@H](CCCCN)C(=O)O)CC2)cc1 [Compound 66, D-Phe-D-Tyr(Et)-D-Leu-D-Lys-4-aminopiperidine-4-carboxamide-Gly-Gly-Gly-Gly-Gly-D-Lys-OH] (H-[Api]([dK-dL-X12])GGGGG[dK]-OH; N-terminus assumed) | 0.0895 | 678.4 | –
15 | CCOc1ccc(C[C@@H](NC(=O)[C@H](N)Cc2ccccc2)C(=O)N[C@H](CC(C)C)C(=O)N[C@H](CCCCN)C(=O)N2CCC(N)(C(=O)NCC(=O)NCC(=O)NCC(=O)NCC(=O)N[C@H](CCCCN)C(N)=O)CC2)cc1 [Compound 61, D-Phe-D-Tyr(Et)-D-Leu-D-Lys-4-aminopiperidine-4-carboxamide-Gly-Gly-Gly-Gly-D-Lys-NH2] (H-[Api]([dK-dL-X12])GGGG[dK]-NH2; N-terminus assumed) | 0.0706 | 860.1 | –
16 | CC(C)C[C@@H](NC(=O)[C@@H](Cc1ccc(Br)cc1)NC(=O)[C@H](N)Cc1ccccc1)C(=O)N[C@H](CCCCN)C(=O)N1CCC(N)(C(=O)N[C@@H](CCCCN)C(=O)O)CC1 [Compound 118, D-Phe-D-Phe(4-Br)-D-Leu-D-Lys-4-aminopiperidine-4-carboxamide-Lys-OH] | 0.0638 | 951.7 | –
17 | CCOc1ccc(C[C@@H](NC(=O)[C@H](N)Cc2ccccc2)C(=O)N[C@H](CC(C)C)C(=O)N[C@H](CCCCN)C(=O)N2CCC(N)(C(=O)NCC(=O)NCC(=O)N[C@@H](CCCCN)C(N)=O)CC2)cc1 [Compound 51, D-Phe-D-Tyr(Et)-D-Leu-D-Lys-4-aminopiperidine-4-carboxamide-Gly-Gly-Lys-NH2] (I: H-[Api]GGK-NH2 / II: H-[dF][dY](Et)[dL][dK]; amide I:1-II:C; N-terminus assumed) | 0.0477 | 1273.0 | –
18 | CC(C)C[C@@H](NC(=O)[C@@H](Cc1ccc(Cl)cc1)NC(=O)[C@H](N)Cc1ccccc1)C(=O)N[C@H](CCCCN)C(=O)N1CCC(N)(C(=O)N[C@@H](CCCCN)C(N)=O)CC1 [Compound 111, D-Phe-D-Phe(4-C1)-D-Leu-D-Lys-4-aminopiperidine-4-carboxamide-Lys-NH2] | 0.0521 | 1165.5 | –
19 | CCOc1ccc(C[C@@H](NC(=O)[C@H](N)Cc2ccccc2)C(=O)N[C@H](CC(C)C)C(=O)N[C@H](CCCCN)C(=O)N2CCC(N)(C(=O)NCC(=O)NCC(=O)NCC(=O)N[C@H](CCCCN)C(N)=O)CC2)cc1 [Compound 57, D-Phe-D-Tyr(Et)-D-Leu-D-Lys-4-aminopiperidine-4-carboxamide-Gly-Gly-Gly-D-Lys-NH2] (H-[Api]([dK-dL-X12])GGG[dK]-NH2; N-terminus assumed) | 0.0514 | 1181.3 | –
20 | CCOc1ccc(C[C@@H](NC(=O)[C@H](N)Cc2ccccc2)C(=O)N[C@H](CC(C)C)C(=O)N[C@H](CCCCN)C(=O)N2CCC(N)(C(N)=O)CC2)cc1 [Compound 1, D-Phe-D-Tyr(Et)-D-Leu-D-Lys-4-aminopiperidine-4-carboxylicacid-NH2] (H-[dF][dY](Et)[dL][dK]-{Piperidinyl(4-NH2,4-CONH2)}; N-terminus assumed) | 0.116 | 524.8 | –
